According to patent US4058621A, “Iron complexes and foodstuffs containing them” (priority 1975, dated 1977):

Legend:
[1] = maximum amount of iron which can be complexed with galacturonic acid; assay type: physicochemical
Experimental: 25.5 grams of high-purity galacturonic acid were dissolved in 300 ml of distilled water with the addition of solid sodium carbonate until a pH of 8 to 9 was reached. Separately, 24 grams of anhydrous ferric chloride were dissolved in 300 ml of distilled water and this solution was then added slowly, by dropping funnel, to the aforementioned solution of galacturonic acid, adjusting with solid sodium carbonate as needed to keep the mixture slightly alkaline, e.g. pH 8-9, and keeping the mixture stirred moderately. A beautiful brown-red solution was thus obtained. In order to ascertain the maximum amount of iron which can be complexed with galacturonic acid, a solution of 189.9 grams of anhydrous ferric chloride was dissolved in 1500 ml of distilled water, and this solution was added gradually to the above solution, with good stirring, and always adjusting the alkalinity to a pH of 8-9. […] A light-brown precipitate then appeared which, however, was dissolved again completely in about an hour's time and a perfectly clear, deep brown-red solution again resulted. From the total amounts of galacturonic acid used and ferric chloride solution consumed in the test, it was calculated that one mol weight of galacturonic acid will complex three atom weights of iron. Actually, 2,989 atom-weights of iron were consumed, an amount well within experimental error.

[2] = tested on: rabbits; settings: intravenous route; cited from earlier work
[3] = tested on: anemic rat; assay: curative test: bioavailability of iron / hemoglobin repletion in the anemic rat (cyanomethemoglobin method of Drabkin); assay type: in vivo, rat (male albino, Wistar-derived stock); settings: for improvement in hemoglobin: 0.2 mg iron per day
Source text: The "curative" test results can be obtained in an oral administration technique, wherein the test animals are fed a prescribed iron-poor diet and are brought to an anemic condition through a controlled experimental technique. […] This test technique is generally standardized and has been used, with many variations, to determine bioavailability of iron in a variety of hematinics.
Reagent grade ferrous sulfate heptahydrate (Fisher Scientific Co.) was used without further purification at the calculated iron content of 20.1%.
Weanling male albino rats (Wistar-derived stock weighing between 45 and 55 grams) were placed in individual cages (newly galvanized) and provided with food and distilled water, ad libitum. The iron-low diet was that described by Pla and Fritz (J. Assoc. Offic. Anal. Chem. 54, 18 (1971). Weekly determination of hemoglobin content in tail blood was determined by the cyanomethemoglobin method of Drabkin adapted to 0.02 ml samples as recommended by these authors.
18 rats were selected for the test from a larger number to provide three matched groups of six, each having essentially equal initial hemoglobin values.
The solution prepared on Fridays was also dosed on Saturdays and Sundays. The solutions were administered by intragastric intubulation. The Negative Control Group received sham treatment consisting of plain water.
Body weights of all animals were recorded weekly and hemoglobin determinations were repeated after two and four weeks of dosing.

[4] = tested on: rats; settings: oral ingestion; cited from earlier work
[5] = tested on: humans; settings: not without risk of some serious side effects; cited from earlier work

Row | Compound | iron actually consumed per mol weight of galacturonic acid ([1]; pH 8-9) | iron complexed per mol weight of galacturonic acid ([1]; pH 8-9, calculated from amounts consumed) | LD50 [2] | improvement in hemoglobin ([3]; after four weeks of dosing) | improvement in hemoglobin ([3]; after two weeks of dosing) | body weight gain ([3]; as compared to the Example 1 Group, differences were nominal) | efficacy in reversing mild deficiency anemia ([3]; conclusion of the test) | LD50 [4] | tolerated oral dosage [5]
1 | O=C[C@H](O)[C@@H](O)[C@@H](O)[C@H](O)C(=O)O [galacturonic acid] | 2,989 atom-weights of iron | three |  |  |  |  |  |  | 
2 | ferrous sulfate |  |  | 99 milligrams per kilogram of body weight | significant improvement | significant improvement | averaged slightly better | reversing mild deficiency anemia | 5,000 milligrams per kilogram of body weight | about 300 milligrams
